What all share (type): biochemical
Assay [1] can be described thus: Diphenyl-picryl-hydrazyl (DPPH) scavenging activity. Particulars: concentration needed to scavenge DPPH by 50%; EGCG moiety concentration for EGCG-containing samples, n = 3. As for the experimental part: Diphenyl-picryl-hydrazyl scavenging activity: Different amounts of a sample were mixed with the chemically stable free radical 1,1-diphenyl-2-picryl-hydrazyl (DPPH) solution and absorbance at 519 nm was continuously recorded for 30 min at 25° C. using a UV-visible spectrophotometer (JASCO V-510 UV/VIS/NIR spectrometer, Japan). All analyses were run in triplicate and the results were averaged.
Diphenyl-picryl-hydrazyl scavenging activity and Superoxide anion scavenging activity: The 1,1-diphenyl-2-picryl-hydrazyl radical (DPPH) assay, which measures hydrogen atom donating activity, provides an evaluation of antioxidant activity due to free radical scavenging. DPPH, a purple-coloured stable free radical, is reduced into the yellow-coloured diphenylpicry hydrazine, as the radical is scavenged by antioxidants through donation of hydrogen. […] The DPPH scavenging activity of samples was expressed by IC50 (the concentration needed to scavenge DPPH by 50%), as shown in Table 4. […] These activities were also much higher than those of commercial antioxidants, vitamin C and dibutylhydroxytoluen (BHT).
Background: Loss of DPPH colour is used to gauge radical scavenging.

The nature of assay [2]: Superoxide anion scavenging activity (xanthine/XO, NBT reduction method). Particulars: concentration needed to scavenge superoxide anion by 50%; EGCG moiety concentration for EGCG-containing samples, n = 3; read-out: Superoxide radical scavenging activity IC50. As for the experimental part: Superoxide anion scavenging activity: Superoxide anion was generated using xanthine and xanthine oxidase (XO), and measured by the nitroblue tetrazolium (NBT) reduction method. A test sample was mixed in a buffer solution (pH 7.0) containing xanthine and NBT at 25° C. Measurement began with the addition of XO. […] All analyses were run in triplicate and the results were averaged. Superoxide scavenging activity was calculated according to the following formula: […] A mixture of xanthine and XO generates superoxide anion, which reduces nitroblue tetrazolium (NBT) to give the blue chromogen formazan and increases UV absorbance at 560 nm. Compounds capable of scavenging superoxide anion, such as superoxide dismutase (SOD), inhibit NBT reduction. […] Since compounds capable of scavenging superoxide anion can also affect NBT reduction, samples were investigated for their effects on these processes. […] Evaluation of scavenging activity against DPPH and superoxide anion provided direct evidence of the free radical scavenging potential of those compounds.

In the next assay the target is T1, Xanthine oxidase (XO) (Bos taurus, UniProt P80457).
T1 construct: purchased Sigma-Aldrich
T1 sequence (P80457 2-1332 limits assumed): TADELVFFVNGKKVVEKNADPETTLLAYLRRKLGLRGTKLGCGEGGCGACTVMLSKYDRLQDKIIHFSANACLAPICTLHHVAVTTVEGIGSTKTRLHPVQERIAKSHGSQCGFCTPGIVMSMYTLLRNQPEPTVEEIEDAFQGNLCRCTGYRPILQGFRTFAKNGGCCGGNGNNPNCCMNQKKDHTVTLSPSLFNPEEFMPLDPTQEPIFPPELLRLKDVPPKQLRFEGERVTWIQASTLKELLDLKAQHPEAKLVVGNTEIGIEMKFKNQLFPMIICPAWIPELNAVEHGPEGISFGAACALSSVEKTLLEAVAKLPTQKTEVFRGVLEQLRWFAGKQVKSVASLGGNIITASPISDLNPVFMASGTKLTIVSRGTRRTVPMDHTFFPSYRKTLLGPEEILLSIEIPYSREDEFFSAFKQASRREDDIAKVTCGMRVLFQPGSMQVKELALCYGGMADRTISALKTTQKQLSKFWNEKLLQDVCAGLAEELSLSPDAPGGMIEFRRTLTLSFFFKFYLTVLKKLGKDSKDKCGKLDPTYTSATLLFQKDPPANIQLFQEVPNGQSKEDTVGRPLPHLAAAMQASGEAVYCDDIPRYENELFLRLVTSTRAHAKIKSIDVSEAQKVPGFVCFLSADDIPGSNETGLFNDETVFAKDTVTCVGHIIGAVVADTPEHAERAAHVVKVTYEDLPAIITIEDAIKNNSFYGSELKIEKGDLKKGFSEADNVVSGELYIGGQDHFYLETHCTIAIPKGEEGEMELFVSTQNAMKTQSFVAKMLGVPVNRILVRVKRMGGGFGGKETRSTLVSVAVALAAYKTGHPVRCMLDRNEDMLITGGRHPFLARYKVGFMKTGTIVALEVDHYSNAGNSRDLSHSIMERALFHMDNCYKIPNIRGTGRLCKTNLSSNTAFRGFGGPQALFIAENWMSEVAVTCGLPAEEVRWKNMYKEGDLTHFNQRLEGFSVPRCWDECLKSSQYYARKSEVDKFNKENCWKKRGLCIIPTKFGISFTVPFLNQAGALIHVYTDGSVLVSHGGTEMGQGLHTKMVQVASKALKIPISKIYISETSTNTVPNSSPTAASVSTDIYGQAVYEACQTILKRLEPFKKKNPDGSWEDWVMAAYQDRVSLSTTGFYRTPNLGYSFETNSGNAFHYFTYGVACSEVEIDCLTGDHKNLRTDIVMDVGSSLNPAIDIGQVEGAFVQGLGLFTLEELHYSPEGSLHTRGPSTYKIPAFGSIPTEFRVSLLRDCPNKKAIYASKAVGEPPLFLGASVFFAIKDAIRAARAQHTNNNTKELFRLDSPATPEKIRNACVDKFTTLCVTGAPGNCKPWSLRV
Put plainly: Xanthine oxidase inhibitory activity (uric acid formation at 295 nm). Particulars: for XO inhibition activity: 10 μM of samples. As for the experimental part: Xanthine oxidase inhibitory activity: The activity of XO was measured spectrophotometrically by monitoring the formation of uric acid at 295 nm for 30 min using a UV-visible spectrometer. The assay was carried out under the same conditions as the superoxide anion assay, and the percentage activity was calculated.

A further assay deals with Urokinase (uPA) (Homo sapiens, UniProt P00749). Put plainly: uPA inhibitory activity (SPECTROZYME UK). Particulars: over a range of tested concentrations, EGCG-unit concentration (FIG. 8).
The target of assay [3] is T2, Xanthine Oxidase from buttermilk (Bos taurus, UniProt P80457).
T2 construct: Xanthine Oxidase from buttermilk, Wako Chemical; purchased Wako Chemical; host or cells: buttermilk
T2 sequence (P80457 whole entry): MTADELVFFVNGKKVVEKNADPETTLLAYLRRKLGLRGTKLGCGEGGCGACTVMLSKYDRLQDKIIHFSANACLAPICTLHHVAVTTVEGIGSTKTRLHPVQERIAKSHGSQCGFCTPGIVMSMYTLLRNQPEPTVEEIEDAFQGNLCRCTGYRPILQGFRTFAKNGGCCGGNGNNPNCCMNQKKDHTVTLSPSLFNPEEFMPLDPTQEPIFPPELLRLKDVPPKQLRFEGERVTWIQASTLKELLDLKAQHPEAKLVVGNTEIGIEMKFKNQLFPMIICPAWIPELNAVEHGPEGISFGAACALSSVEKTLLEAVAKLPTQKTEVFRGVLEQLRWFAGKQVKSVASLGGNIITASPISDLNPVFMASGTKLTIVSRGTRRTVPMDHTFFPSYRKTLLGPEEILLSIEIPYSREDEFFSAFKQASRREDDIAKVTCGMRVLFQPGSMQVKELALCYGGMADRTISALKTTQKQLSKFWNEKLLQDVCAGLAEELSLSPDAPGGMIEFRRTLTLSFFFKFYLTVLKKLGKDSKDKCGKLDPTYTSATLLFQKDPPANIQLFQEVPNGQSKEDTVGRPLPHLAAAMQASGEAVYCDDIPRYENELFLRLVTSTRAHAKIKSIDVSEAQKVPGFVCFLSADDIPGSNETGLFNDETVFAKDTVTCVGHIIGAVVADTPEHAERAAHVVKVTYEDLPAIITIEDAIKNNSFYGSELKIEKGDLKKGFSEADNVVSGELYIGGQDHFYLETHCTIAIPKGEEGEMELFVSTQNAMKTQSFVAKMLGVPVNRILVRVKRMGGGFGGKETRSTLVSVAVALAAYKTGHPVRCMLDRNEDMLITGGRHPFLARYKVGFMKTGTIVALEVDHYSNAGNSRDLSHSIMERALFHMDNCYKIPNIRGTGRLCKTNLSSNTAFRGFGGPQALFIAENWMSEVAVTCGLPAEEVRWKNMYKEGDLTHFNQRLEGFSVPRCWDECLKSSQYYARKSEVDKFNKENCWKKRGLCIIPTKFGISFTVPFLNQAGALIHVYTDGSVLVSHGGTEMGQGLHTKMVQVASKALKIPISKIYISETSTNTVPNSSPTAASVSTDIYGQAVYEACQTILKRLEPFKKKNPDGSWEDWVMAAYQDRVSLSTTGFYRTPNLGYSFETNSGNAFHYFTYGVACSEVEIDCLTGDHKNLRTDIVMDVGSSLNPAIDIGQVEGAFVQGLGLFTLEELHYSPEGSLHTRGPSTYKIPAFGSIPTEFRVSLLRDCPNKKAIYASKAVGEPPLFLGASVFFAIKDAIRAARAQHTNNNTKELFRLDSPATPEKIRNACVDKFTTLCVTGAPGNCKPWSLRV
Put plainly: Xanthine oxidase activity upon complexation with OEGCG and recovery with Triton X-100. Particulars: highest OEGCG concentration. As for the experimental part:
XO activity was measured by determining uric acid production in a UV-vis spectrophotometer at 295 nm. The increase in absorbance due to the conversion of xanthine to uric acid was followed for 3 minutes. […] Activity was measured according to the specified method for each protein. Activity for all proteins is calculated with the following equation: [formula] where ΔAbssample is the change in absorbance over time with the test compound and ΔAbscontrol is the change in absorbance over time without the test compound.

Assay [4] deals with T3, α-Amylase from Apergillus oryzae (Aspergillus oryzae, UniProt P0C1B3).
T3 construct: α-Amylase from Apergillus oryzae, Fluka; purchased Fluka; host or cells: Aspergillus oryzae
Put plainly: α-Amylase activity upon complexation with OEGCG and recovery with Triton X-100. As for the experimental part: α-Amylase from Apergillus oryzae, Fluka. Amylase activity was assayed with an activity kit from Molecular Probes (E-11954) using a fluorescence spectrophotometer with excitation wavelength at 505 nm and emission wavelength at 512 nm. […] Fluorescence was monitored over a period of 3 minutes.
(§1) Activity was measured according to the specified method for each protein.
(§2) Activity for all proteins is calculated with the following equation:
(§3) [formula] where ΔAbssample is the change in absorbance over time with the test compound and ΔAbscontrol is the change in absorbance over time without the test compound.

Assay [5] concerns the target T4, Catalase from bovine liver (Bos taurus, UniProt P00432).
T4 construct: Catalase from bovine liver, Sigma Chemical; purchased Sigma Chemical; host or cells: bovine liver
T4 sequence (P00432 2-527 limits assumed): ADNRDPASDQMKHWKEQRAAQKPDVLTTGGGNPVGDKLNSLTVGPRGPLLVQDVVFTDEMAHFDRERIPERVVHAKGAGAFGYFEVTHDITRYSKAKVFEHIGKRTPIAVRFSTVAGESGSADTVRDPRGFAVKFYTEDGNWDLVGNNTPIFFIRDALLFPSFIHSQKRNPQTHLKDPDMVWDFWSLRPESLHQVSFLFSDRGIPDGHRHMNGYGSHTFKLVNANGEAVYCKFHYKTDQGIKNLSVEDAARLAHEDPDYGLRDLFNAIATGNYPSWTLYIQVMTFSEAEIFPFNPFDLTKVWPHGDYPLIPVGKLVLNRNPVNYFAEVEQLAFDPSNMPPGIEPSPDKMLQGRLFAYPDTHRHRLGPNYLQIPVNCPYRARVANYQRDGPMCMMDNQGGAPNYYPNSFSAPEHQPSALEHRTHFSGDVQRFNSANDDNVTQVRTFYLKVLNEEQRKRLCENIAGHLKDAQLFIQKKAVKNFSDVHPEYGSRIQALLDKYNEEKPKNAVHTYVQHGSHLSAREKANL
Put plainly: Catalase activity upon complexation with OEGCG and recovery with Triton X-100. The procedure: Catalase from bovine liver, Sigma Chemical. Catalase activity was measured by the disappearance of H2O2, followed at 240 nm in a UV-Vis spectrophotometer over a period of 200s. […] The reaction was started by adding 0.507 M H2O2 and mixing for 25 s.
as §1, §2, §3

The target in a further assay is T5, Lysozyme from egg white (Gallus gallus, UniProt P00698).
T5 construct: Lysozyme from egg white, Sigma Chemical; purchased Sigma Chemical; host or cells: egg white
T5 sequence (P00698 19-147): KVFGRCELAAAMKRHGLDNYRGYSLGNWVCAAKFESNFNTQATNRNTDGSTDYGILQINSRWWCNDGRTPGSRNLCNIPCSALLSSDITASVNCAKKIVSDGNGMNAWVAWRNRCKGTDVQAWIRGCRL
Put plainly: Lysozyme activity upon complexation with OEGCG and recovery with Triton X-100. The procedure: Lysozyme from egg white, Sigma Chemical. Activity of lysozyme was determined spectrophotometically at 450 nm by the decrease in turbidity over time due to the cleavage of glucosidic linkages of Micrococcus lysodeikticus. […] To start the reaction, 0.25 mg/mL of Micrococcus lysodeikticus was added to the solution.
as §1, §2, §3

The nature of assay [6]: ABTS radical scavenging activity. Particulars: dissociation (FIG. 27). The procedure:
Radical scavenging activity: ABTS^.+ was prepared by mixing a 7 mM ABTS stock solution with 2.45 mM potassium persulfate ((1/1, v/v). The decolorization reaction was initiated by adding ABTS^.+ to samples in a phosphate buffer and immediately measured at 734 nm using a UV-Vis spectrophotometer (Hitachi, Japan).

The mark [7] stands for this setting: addition of TX-100 after complexation with OEGCG.

Procedure for Urokinase (uPA): uPA inhibitory activity: Various amounts of a sample were mixed with uPA in a buffer solution, and incubated for 15 min at 37° C. The mixture solution was added with SPECTROZYME™ and absorbance at 405 nm was recorded for 10 min using a microplate reader.

For the compound `Cc1cc(C(C)(C)C)c(O)c(C(C)(C)C)c1` [BHT, dibutylhydroxytoluen, reference compound], the IC50 in assay [1] and in assay [2] was greater than 250 µM throughout.

As to `O=C1O[C@H]([C@@H](O)CO)C(O)=C1O` [Vitamin C, reference compound], the results for the IC50 in [1] and in assay [2] were 44.7 ± 0.4 µM and 30.3 ± 0.3 µM, respectively.

In the case of `Oc1ncnc2[nH]ncc12` [allopurinol, reference compound], the inhibition at 10 µM at Xanthine oxidase (XO) (read-out: XO inhibition activity) was found to be 22.6%.

With “(−)-Epigallocatechin gallate [EGCG, reference compound]”, the IC50 stood at 7.3 ± 0.6 µM in assay [1] and 2.9 ± 0.3 µM in assay [2]. This compound also registered an XO inhibition activity at Xanthine oxidase (XO) of 1.2%. For the same compound, at Xanthine oxidase (XO) (over the range of concentrations tested), the XO inhibition entry is reported as “less than 5%”. Also, the uPA inhibition activity result at Urokinase (uPA) is given as “very low uPA inhibition activity”.

As to “PEG-epigallocatechin gallate conjugate [PEG-EGCG]”, the results for the 50% inhibitory concentration (IC50) in [1] and in [2] were 6.2 ± 0.3 µM and 0.9 ± 0.1 µM, respectively. Besides, the XO inhibition activity on Xanthine oxidase (XO) came out at 30.7%. Also, the uPA inhibition activity entry at Urokinase (uPA) was “higher inhibition activities”.

Regarding “PEG-oligomeric epigallocatechin gallate [PEG-OEGCG]”, the figures for the IC50 in [1] and in [2] were 3.8 ± 0.8 µM and 0.4 ± 0.1 µM, respectively. Further, the XO inhibition activity on Xanthine oxidase (XO) is listed as 100%. The uPA inhibition activity result on Urokinase (uPA) is listed as “higher inhibition activities”.

“oligomeric epigallocatechin gallate [OEGCG]”: the IC50 turned out to be 4.9 ± 0.5 µM in assay [1] and 1.1 ± 0.2 µM in assay [2]. In addition, at Xanthine oxidase (XO), the XO inhibition activity is on record as 89.3%. For the same compound, the uPA inhibition activity result at Urokinase (uPA) was “higher inhibition activities”. The “suppression of total XO activity” value in assay [3] came out at 75%. Moreover, the “maximum inhibition of α-amylase” value in assay [4] is listed as “about 94%”. Moreover, the “initial α-amylase activity inhibition” value in assay [4] (OEGCG below a ratio of one) was 70%. Besides, in assay [4] (setting [7]), the “α-amylase activity restored, % of the initial protein activity” value is given as “approximately 100%”. In addition, the “decrease in α-amylase activity” value in assay [4] (five fold increase in OEGCG concentration from a ratio of 1 to 5) is 20%. The “further decrease of catalase activity” value in [5] (five fold increase in OEGCG concentration beyond OEGCG to protein ratio of 1) is “about 6%”. Further, the inhibition of catalase in assay [5] (highest OEGCG to protein ratio) stood at 30%. For the same compound, at Lysozyme from egg white (above an OEGCG ratio of 2), the inhibition of lysozyme entry was “All activity was suppressed”. In addition, the “lysozyme activity restored, % of the initial protein activity” value on Lysozyme from egg white (setting [7]) is given as “approximately 100%”. Besides, the “ABTS radical scavenging activity upon complexation with proteins and dissociation” value in [6] is “suppressed by complexation with proteins was restored upon dissociation”.

As a reminder, the IC50 is the point on the concentration scale where inhibition reaches its midpoint. Usually inhibition stands for the percentage by which the read-out fell short of the control.

(Values after patent publication US8410165B2, “Aldehyde conjugated flavonoid preparations” (Agency for Science, Technology and Research, priority 2005, dated 2013).)
